From patent US7485669B2, “Blockade of sodium channels by phenol derivatives” (B. Braun Melsungen AG, priority 2000, dated 2009)
Like-named read-outs stand apart in the source and are kept apart here. Blank lines part the entries; values can stand above or below the compound they belong to.

How the values were obtained:
[1] = target: T1, human skeletal muscle sodium channels (Homo sapiens, UniProt P35499); test: Whole-cell voltage-clamp of heterologously expressed human skeletal muscle sodium channels in HEK 293 cells; type: cell-based; details: for time constant of channel inactivation τh: 40 ms steps −100 mV to 0 mV, control 0.43±0.08 ms; for frequency-dependent block: additional fall relative to the first pulse: 100 Hz train, −100 mV to 0 mV
T1 construct: expressed in transfected cells
T1 sequence (P35499 whole entry): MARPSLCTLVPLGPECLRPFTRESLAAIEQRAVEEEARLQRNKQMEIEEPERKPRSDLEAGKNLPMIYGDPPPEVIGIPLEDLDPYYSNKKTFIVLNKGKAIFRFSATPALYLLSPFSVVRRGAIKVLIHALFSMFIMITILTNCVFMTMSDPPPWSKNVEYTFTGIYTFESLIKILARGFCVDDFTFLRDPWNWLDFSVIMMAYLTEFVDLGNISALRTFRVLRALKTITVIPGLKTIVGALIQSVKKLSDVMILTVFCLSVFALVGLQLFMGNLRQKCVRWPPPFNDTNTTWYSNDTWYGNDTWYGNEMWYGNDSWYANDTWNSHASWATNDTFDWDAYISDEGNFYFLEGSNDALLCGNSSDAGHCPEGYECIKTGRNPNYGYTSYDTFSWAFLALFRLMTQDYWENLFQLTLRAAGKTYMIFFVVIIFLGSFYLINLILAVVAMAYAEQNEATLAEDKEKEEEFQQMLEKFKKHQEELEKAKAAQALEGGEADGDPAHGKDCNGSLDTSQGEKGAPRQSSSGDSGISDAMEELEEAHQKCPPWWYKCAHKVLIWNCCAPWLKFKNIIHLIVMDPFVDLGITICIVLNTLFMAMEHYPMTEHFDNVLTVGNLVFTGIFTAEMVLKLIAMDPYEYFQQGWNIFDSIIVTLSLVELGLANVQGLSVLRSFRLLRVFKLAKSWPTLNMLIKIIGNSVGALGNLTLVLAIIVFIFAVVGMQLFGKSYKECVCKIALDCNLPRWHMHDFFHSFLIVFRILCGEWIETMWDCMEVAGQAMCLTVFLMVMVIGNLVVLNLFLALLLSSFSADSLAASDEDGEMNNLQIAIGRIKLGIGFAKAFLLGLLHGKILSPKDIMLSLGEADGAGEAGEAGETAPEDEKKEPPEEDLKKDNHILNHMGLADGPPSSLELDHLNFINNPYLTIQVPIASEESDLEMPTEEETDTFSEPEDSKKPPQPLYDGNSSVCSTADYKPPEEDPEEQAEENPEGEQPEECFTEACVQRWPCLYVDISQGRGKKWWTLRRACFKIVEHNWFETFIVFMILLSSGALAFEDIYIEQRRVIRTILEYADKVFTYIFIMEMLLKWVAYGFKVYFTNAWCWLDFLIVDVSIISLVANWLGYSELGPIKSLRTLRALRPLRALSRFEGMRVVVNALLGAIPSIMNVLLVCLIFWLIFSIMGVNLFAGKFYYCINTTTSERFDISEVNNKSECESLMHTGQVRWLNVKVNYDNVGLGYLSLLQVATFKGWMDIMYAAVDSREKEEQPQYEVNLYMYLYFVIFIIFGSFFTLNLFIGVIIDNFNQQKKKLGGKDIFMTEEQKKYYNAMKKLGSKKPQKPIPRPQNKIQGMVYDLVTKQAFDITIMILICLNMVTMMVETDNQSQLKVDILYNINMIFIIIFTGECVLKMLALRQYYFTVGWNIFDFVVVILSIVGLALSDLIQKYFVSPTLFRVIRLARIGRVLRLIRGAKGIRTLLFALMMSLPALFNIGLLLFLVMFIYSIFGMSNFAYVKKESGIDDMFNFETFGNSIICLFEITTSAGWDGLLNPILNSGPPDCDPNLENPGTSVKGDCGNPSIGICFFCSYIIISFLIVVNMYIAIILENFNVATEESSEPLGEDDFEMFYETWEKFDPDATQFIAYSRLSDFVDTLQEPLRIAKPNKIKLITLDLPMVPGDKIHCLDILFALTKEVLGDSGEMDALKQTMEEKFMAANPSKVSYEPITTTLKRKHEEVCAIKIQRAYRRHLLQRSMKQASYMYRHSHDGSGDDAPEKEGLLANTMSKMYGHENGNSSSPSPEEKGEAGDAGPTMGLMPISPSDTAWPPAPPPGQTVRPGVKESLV
Excerpt: The sodium channel blocking potency effects of different phenol derivatives with methyl and halogen substituents have been studied on heterologously expressed human skeletal muscle sodium channels. The phenol derivatives encompassed by formula (I) are either commercially available or can be synthesized by conventional standard laboratory methods.
Wild type α-subunits of human muscle sodium channels were heterologously expressed in human embryonic kidney (HEK 293) cells, a stable cell line since […] (American Tissue Culture Collection CRL 1573). Transfection was performed using calcium phosphate precipitation (Graham & Van der Eb, Virology, 52 (1973) 456-467). Permanent expression was achieved by selection for resistance to the aminoglycoside antibiotic geneticin G418 (Life Technology, Eggenstein, Germany) (Mitotic et al., J. Physiol., 478 (1994) 395-402). Successful channel expression was verified electrophysiologically. The clone has been used in several investigations (Haeseler et al.,Br. J. Pharmacol., 128 (1999) 1259-67; Haeseler et al., Br. J. Pharmacol. 130 (2000) 1321-1330; Mitrovic et al., ibid.).
3,5-dimethyl-4-chlorophenol (according to the invention) and 3-methylphenol (not according to the invention) were purchased from Sigma Chemicals, Deisenhofen, Germany; 4-chloro-2-methylphenol (not according to the invention) and 4-chlorophenol (not according to the invention) were from FLUKA, Deisenhofen, Germany. 3,5-Dimethyl-4-chlorophenol was prepared as a 1 M stock solution in methanol; 4-chloro-2-methylphenol, 4-chlorophenol, and 3-methylphenol were dissolved directly in the bath solution immediately before the experiments. Concentrations were calculated from the amount injected into the glass vials. Drug-containing solutions were protected from light and were vigorously vortexed for 60 min. The solution was applied via a glass polytetrafluoroethylene perfusion system and a stainless steel superfusion pipette. The bath solution contained (mM) NaCl 140, MgCl2 1.0, KCl 4.0, CaCl2 2.0, Hepes 5.0, dextrose 5.0. Patch electrodes contained (mM) […] 130, MgCl2 2.0, EGTA 5.0, Hepes 10. All solutions were adjusted to 290 mosm/l by the addition of mannitol and to pH 7.4 by the addition of CsOH.
Standard whole-cell voltage-clamp experiments (Hamill et al., Pfuegers Arch., 391 (1981) 85-100) were performed at 20° C. Each experiment consisted of test recordings with the drug present at only one concentration, and of drug-free control recordings before and after the test. Each whole-cell patch was exposed to one test concentration only. At least four experiments were performed at each concentration. The amount of the diluent methanol corresponding to the test concentration of 3,5-dimethyl-4-chlorophenol was added to the control solution. Patched cells were lifted into the visible stream of either bath solution or test solution, applied via a two-channel superfusion pipette close to the cell. To ensure adequate adjustment of the application device, one test experiment in distilled water reducing inward sodium current to zero was performed every 6-10 experiments.
For data acquisition and further analysis we used the EPC9 digitally-controlled amplifier in combination with Pulse and Pulse Fit software (HEKA Electronics, Lambrecht, Germany). The EPC9 provides automatic subtraction of capacitive and leakage currents by means of a prepulse protocol. The data were filtered at 10 kHz and digitized at 20 μs per point. Input resistance of the patch pipettes was at 1.8-2.5 MΩ. Only small cells with capacitances of 9-15 pF were used; residual series resistance (after 50% compensation) was 1.2-2.5 MΩ; experiments with a rise in series resistance were rejected. The time constant of the voltage settling within the membrane (residual series resistance×cell capacitance) was less than 35 μs. […]

[2] = target: heterologously expressed muscle sodium channels (Homo sapiens, UniProt P35499); details: −100 mV; Fan et al. 1996; read-out: IC50 for block of heterologously expressed muscle sodium channels at −100 mV; cited from earlier work
Chain of heterologously expressed muscle sodium channels (P35499 whole entry): as above

[3] = IC50 for block of inward sodium current at a holding potential of −150 mV, holding potential −150 mV, 10 ms pulse to 0 mV
[4] = IC50 for block of sodium currents on depolarization from -100 mV to 0 mV, holding potential −100 mV, test pulse to 0 mV

time constant of channel inactivation τh ([1]; 50 μM drug): 0.27 ± 0.02 ms | frequency-dependent block: additional fall relative to the first pulse ([1]; 300 μM drug): 17±5% | Kd ([1]; derived from drug-induced shifts in steady-state availability curves, read-out: KD for the fast-inactivated state): 14 µM | IC50 ([1]; holding potential −100 mV, test pulse to 0 mV, read-out: IC50 for block of sodium currents on depolarization from -100 mV to 0 mV): 150 µM | IC50 ([1]; holding potential −150 mV, 10 ms pulse to 0 mV, read-out: IC50 for block of inward sodium current at a holding potential of −150 mV): 162 µM
SMILES: Cc1cc(O)cc(C)c1Cl [3,5-dimethyl-4-chlorophenol]

SMILES: Cc1cccc(O)c1 [3-methylphenol]
time constant of channel inactivation τh ([1]; 1000 μM drug): 0.30 ± 0.08 ms | frequency-dependent block: additional fall relative to the first pulse ([1]; 3000 μM drug): 8±2% | IC50 [1, 3]: 2400 µM | IC50 [1, 4]: 2160 µM

SMILES: Cc1cc(Cl)ccc1O [4-chloro-2-methylphenol]
time constant of channel inactivation τh ([1]; 100 μM drug): 0.27 ± 0.05 ms | frequency-dependent block: additional fall relative to the first pulse ([1]; 500 μM drug): 16±5% | IC50 [1, 3]: 316 µM | IC50 [1, 4]: 268 µM

SMILES: Oc1ccc(Cl)cc1 [4-chlorophenol]
time constant of channel inactivation τh ([1]; 500 μM drug): 0.23 ± 0.03 ms | frequency-dependent block: additional fall relative to the first pulse ([1]; 1000 μM drug): 13±2% | IC50 [1, 3]: 751 µM | IC50 [1, 4]: 666 µM

SMILES: CCN(CC)CC(=O)Nc1c(C)cccc1C [lidocaine, 2-diethylamino-2′,6′-dimethylacetanilide]
IC50 [2]: 500 µM
